Results published in US20090104177A1, “PEPTIDES FOR INHIBITING THE INTERACTION OF PROTEIN KINASE A AND PROTEIN KINASE A ANCHOR PROTEINS” (FORSCHUNGSVERBUND BERLIN E.V., priority 2004, published 2009).
Entries after “also recorded” stand apart in the source; their conditions may differ. Each block holds one molecule with its values, some of them ahead of it. No end group written: not given here.

Legend:
[1] = target: T1, regulatory RIIα subunits of PKA (Homo sapiens, UniProt P13861); assay: RII overlay of membrane-bound (SPOT) peptides, radiolabelled RIIα as probe, densitometry; assay type: binding; conditions: human RIIα as probe; in words
T1 construct: Prof; Dr. Friedrich W. Herberg, University of Kassel, Germany (obtained from an academic laboratory, not a vendor)
Source text: (§1) Peptide libraries were synthesized by means of automatic SPOT synthesis on Whatman 50 cellulose membranes according to standard protocols using Fmoc chemistry and AutoSpot Robot ATE 222 (Intavis Bioanalytical Instruments AG, Cologne). The protective groups of the amino acid side chains were removed using a mixture of trifluoroacetic acid (TFA) in dichloromethane (DCM) (Frank, 1992; Kramer and Schneider-Mergener, 1998). For control, spots (about 50 nmol of peptide per spot) were cut from the cellulose membrane, removed from the membrane by treatment with 0.05 M NaOH, and analyzed using HPLC and MALDI-TOF mass spectrometry.
(§2) • 1. Regulatory RIIα (human) and RIIβ (rat) subunits of PKA, obtained from Prof. Dr. Friedrich W. Herberg, University of Kassel, Germany. • 2. Catalytic subunits of PKA, Promega, Mannheim, Germany, Order No. V5161 • 3. [γ-^32P]ATP, 5000 Ci/mmol, Amersham Biosciences, Brunswick, Germany, Order No. AA0018 • 4. Sephadex G 50, medium Pharmacia, Order No. 17-0043-01 • 5. Phosphate-buffered saline (PBS)
(§3) The ATP concentration was adjusted to 10 μM by addition of non-radioactive ATP (addition of 5 μl of a 1 mM solution). The batch was incubated on ice for another 50 min.
(§4) The reaction was quenched by adding dextran blue and removing free nucleotides. The free ATP was removed on a Sephadex G50 column.
(§5) Non-incorporated nucleotides were separated from the RII subunits by fractionation on Sephadex G 50 columns. • 1. Swelling of the Sephadex G 50 material: 20 g thereof was allowed to swell in 400 ml of PBS at room temperature overnight. Non-settled material was subsequently removed with a Pasteur pipette. The swollen material was aliquoted in 50 ml Falcon tubes and stored at 4° C. For preservation, sodium azide was added to make a final concentration of 0.01%. • 2. The material was poured into a 10 ml sterile disposable pipette sealed with a glass sphere. To settle the column bed, 50 ml of PBS containing 1 mg/ml BSA (bovine serum albumin) was allowed to pass.
(§6) Until used, the column was sealed with parafilm at the top thereof. • 3. The labelled RII subunits (500 μl), together with dextran blue (70 μl of a 20 mg/ml solution), were applied on the column (overall volume=570 μl). • 4. The sample was allowed to migrate into the matrix, followed by filling up with PBS. • 5. A short time before the dextran blue was eluted, collection of fractions was begun (2 fractions of 1.5 ml each, the other fractions 1 ml each). • 6. To determine the incorporation of ^32P, 1% (5.7 μl) of sample upstream of the column (corresponding to 1% of the radioactivity employed) and 3 μl of each fraction were used. • 7. The fractions of the first peak including the probe were combined. The incorporation rate in % was calculated and the specific activity (cpm/μg of protein) was determined.
(§7) • 1. The proteins (40 μg) were separated by means of SDS-PAGE and transferred on a PVDF membrane (PVDF: polyvinylidene fluoride) using a semi-dry electroblotting procedure. The membrane-associated proteins were stained with Ponceau S in order to identify the marker proteins on the membrane. Destaining was effected using TBS. • 2. The membrane was incubated in Blotto/BSA at 4° C. for 16 hours:
(§8) • 3. Blotto/BSA was replaced with fresh one and ^32P-labelled RII subunits were added (10^5 cpm/ml). This was incubated for 4-6 h at room temperature. • 4. The membrane was washed for 4×15 min in Blotto/BSA and for 2×10 min in 10 mM potassium phosphate buffer, pH 7.4, 0.15 M NaCl. • 5. RII-binding proteins were detected by exposition on a phosphoimager plate.
(§9) Identification of AKAP18δ-derived peptides inhibiting the interaction of AKAP proteins with the regulatory RIIα and RIIβ subunits of PKA. A: Peptides derived from the PKA binding domain of AKAP18δ were synthesized on two membranes. The membranes were incubated with radiolabelled regulatory RIIα (upper row) or RIIβ subunits (row below) of the PKA (RII overlay experiment). […]

[2] = target: RIIα subunits of the PKA (Homo sapiens, UniProt P13861); assay: Summary statement on RIIα binding of AKAP18δ-derived peptides; conditions: in words
Source text: We explain this by binding via hydrogen bridges (H bridges) between peptide and RII dimer (see Fig., hydrogen bridges represented by broken lines). Correspondingly, a common feature of the peptides is the minimum number (8) of amino acids forming H bridges.

[3] = target: T2, regulatory RIIβ subunits of PKA (Rattus norvegicus, UniProt P12369); assay: RII overlay of membrane-bound (SPOT) peptides, radiolabelled RIIβ as probe, densitometry; assay type: binding; conditions: in words
T2 construct: Prof; Dr. Friedrich W. Herberg, University of Kassel, Germany (obtained from an academic laboratory, not a vendor)
Source text: as §1, §2, §3, §4, §5, §6, §7, §8, §9

[4] = target: human RIIα subunits (Homo sapiens, UniProt P13861); assay: Surface plasmon resonance measurement of peptide binding to RIIα
[5] = target: murine RIIα subunit of PKA (Mus musculus, UniProt P12367); conditions: Alto et al. (2003); cited from earlier work
[6] = target: RIIβ subunits from rats (Rattus norvegicus, UniProt P12369); assay: Surface plasmon resonance measurement of peptide binding to RIIβ
[7] = target: T3, regulatory RIIβ subunit of PKA (rat) (rat, UniProt P12369 1-416, 32P-labelled with the catalytic subunit of PKA when used as probe in the RII overlay experiments); assay: RII overlay on SPOT membrane, densitometry; reference AKAP18δ-wt
T3 construct: Radiolabelled probe in RII overlays; format in the surface plasmon resonance measurements is not described; also called RIIβ subunit of PKA from rats

[8] = target: T4, regulatory RIIα subunit of PKA (human) (human, UniProt P13861 1-404, 32P-labelled with the catalytic subunit of PKA when used as probe in the RII overlay experiments); assay: as above
T4 construct: Radiolabelled probe in RII overlays; format in the surface plasmon resonance measurements is not described; also called human RIIα

[9] = target: T3, regulatory RIIβ subunit of PKA (rat); assay: RII overlay on SPOT membrane, densitometry; references AKAP18δ-L304T and AKAP18δ-L314E
[10] = target: T4, regulatory RIIα subunit of PKA (human); assay: as above
[11] = target: T3, regulatory RIIβ subunit of PKA (rat); assay: surface plasmon resonance
[12] = target: T4, regulatory RIIα subunit of PKA (human); assay: surface plasmon resonance
[13] = target: T3, regulatory RIIβ subunit of PKA (rat); assay: RII overlay: SPOT peptides on membrane, probe 32P-labelled RIIβ, phosphoimager
[14] = target: T4, regulatory RIIα subunit of PKA (human); assay: RII overlay: SPOT peptides on membrane, probe 32P-labelled RIIα, phosphoimager
[15] = target: T3, regulatory RIIβ subunit of PKA (rat); assay: RII overlay on SPOT membrane with radiolabelled RIIβ
[16] = target: T4, regulatory RIIα subunit of PKA (human); assay: RII overlay on SPOT membrane with radiolabelled RIIα

RIIβ subunits from rats, sequence (P12369 whole entry): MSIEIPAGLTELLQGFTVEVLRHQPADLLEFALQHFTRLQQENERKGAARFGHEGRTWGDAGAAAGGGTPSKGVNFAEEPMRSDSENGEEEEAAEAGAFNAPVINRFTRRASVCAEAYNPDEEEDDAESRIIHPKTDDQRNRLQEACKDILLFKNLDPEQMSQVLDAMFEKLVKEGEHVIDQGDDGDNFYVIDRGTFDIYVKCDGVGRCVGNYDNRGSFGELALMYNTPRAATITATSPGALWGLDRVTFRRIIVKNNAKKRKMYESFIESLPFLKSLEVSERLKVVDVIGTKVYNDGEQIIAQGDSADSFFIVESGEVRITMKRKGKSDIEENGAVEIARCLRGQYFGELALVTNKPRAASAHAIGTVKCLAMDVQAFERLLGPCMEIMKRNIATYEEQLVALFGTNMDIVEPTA
T3 sequence (P12369 whole entry): as above
T2 sequence (P12369 whole entry): as above
human RIIα subunits, sequence (P13861 whole entry): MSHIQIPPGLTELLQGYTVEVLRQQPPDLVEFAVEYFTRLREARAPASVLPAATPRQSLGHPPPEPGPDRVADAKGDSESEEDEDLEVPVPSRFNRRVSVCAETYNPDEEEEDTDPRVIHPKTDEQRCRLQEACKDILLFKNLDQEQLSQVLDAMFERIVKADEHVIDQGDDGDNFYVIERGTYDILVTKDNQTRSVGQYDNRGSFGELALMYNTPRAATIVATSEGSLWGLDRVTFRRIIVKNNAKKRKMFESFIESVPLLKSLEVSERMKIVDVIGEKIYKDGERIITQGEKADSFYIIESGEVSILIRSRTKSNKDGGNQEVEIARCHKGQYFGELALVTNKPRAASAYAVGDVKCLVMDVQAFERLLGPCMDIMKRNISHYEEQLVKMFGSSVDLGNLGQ
T4 sequence (P13861 whole entry): as above
T1 sequence (P13861 whole entry): as above
RIIα subunits of the PKA, sequence (P13861 whole entry): as above
murine RIIα subunit of PKA, sequence (P12367 whole entry): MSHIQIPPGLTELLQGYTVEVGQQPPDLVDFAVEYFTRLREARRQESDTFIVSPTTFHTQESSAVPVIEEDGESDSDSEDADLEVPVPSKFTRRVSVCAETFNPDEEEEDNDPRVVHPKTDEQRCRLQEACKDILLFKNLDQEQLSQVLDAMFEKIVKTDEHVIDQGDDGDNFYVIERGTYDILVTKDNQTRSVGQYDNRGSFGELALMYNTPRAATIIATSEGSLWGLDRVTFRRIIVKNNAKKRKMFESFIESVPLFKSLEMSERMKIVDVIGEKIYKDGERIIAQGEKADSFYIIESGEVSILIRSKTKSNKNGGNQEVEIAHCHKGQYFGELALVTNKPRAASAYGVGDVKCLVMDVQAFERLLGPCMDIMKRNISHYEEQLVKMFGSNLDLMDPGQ

Molecule: CC(C)C[C@H](NC(=O)[C@H](CCCNC(=N)N)NC(=O)[C@@H](NC(=O)[C@H](CC(C)C)NC(=O)[C@H](CCC(=O)O)NC(=O)[C@H](C)NC(=O)[C@H](CC(=O)O)NC(=O)[C@H](CCC(=O)O)NC(=O)[C@@H]1CCCN1)C(C)C)C(=O)N[C@@H](CO)C(=O)N[C@@H](CCCCN)C(=O)N[C@@H](CCCNC(=N)N)C(=O)N[C@@H](CC(C)C)C(=O)N[C@H](C(=O)N[C@@H](CCC(=O)O)C(=O)N[C@@H](CC(N)=O)C(=O)N[C@@H](C)C(=O)N[C@H](C(=O)N[C@@H](CCC(=O)O)C(=O)N[C@@H](CCCCN)C(=O)N[C@@H](C)C(=O)N[C@H](C(=O)N[C@@H](CCC(N)=O)C(=O)N[C@@H](CCC(N)=O)C(=O)N[C@@H](Cc1ccc(O)cc1)C(=O)O)C(C)C)C(C)C)C(C)C [AKAP18δ-L314E]
binding to RIIα subunits in RII overlay [1]: stronger binding; also recorded: bind strongly
RIIα binding compared with peptides derived from natural AKAPs [2]: bind stronger than any other peptide derived from natural AKAPs
binding to RIIβ subunits in RII overlay [3]: stronger binding; also recorded: bind strongly

Molecule: EPEDAELVRLSKRLVENAVLKAVQQYLEETQ (listed as Homo sapiens) [AKAP18δ-RI]
binding to RIIα subunits in RII overlay [1]: weaker
RIIα binding compared with peptides derived from natural AKAPs [2]: bind stronger than any other peptide derived from natural AKAPs
binding to RIIβ subunits in RII overlay [3]: weaker

Molecule: Ht31 (peptide)
fold weaker binding than AKAP18δ-wt [7]: 5 fold
fold weaker binding than AKAP18δ-wt [8]: 5 fold
fold weaker binding than AKAP18δ-L304T and AKAP18δ-L314E [9]: 5 to 6 fold
fold weaker binding than AKAP18δ-L304T and AKAP18δ-L314E [10]: 5 to 6 fold

Molecule: KGADLIEEAASRIVDAVIEQVKAAG [Ht31, reference compound]
Kd [4]: 15 nM
Kd [5]: 2.2 nM
Kd [6]: 35 nM

Molecule: PEDAELVRTSKRLVENAVLKAVQQY [AKAP18δ-L304T]
Kd [4]: 0.3 to 0.9 nM
binding to RIIα subunits in RII overlay [1]: stronger binding; also recorded: bind strongly
RIIα binding compared with peptides derived from natural AKAPs [2]: bind stronger than any other peptide derived from natural AKAPs
binding to RIIβ subunits in RII overlay [3]: stronger binding; also recorded: bind strongly
Kd [6]: 35 nM

More lines, main results first:

RIIα binding KD [4]: no binding
binding to RIIα subunits in RII overlay [1]: barely bind
binding to RIIβ subunits in RII overlay [3]: barely bind
RIIβ binding KD [6]: no binding
Molecule: AKAPIS [peptide developed by Alto et al. (2003); IS, in silico, reference compound]
Kd [5]: 0.45 nM
affinity increased compared to the Ht31 peptide [5]: 5 times

binding result [11]: no binding
binding result [12]: no binding
B1: AKAP18δ-P (peptide)
peptide: PEDAELVRLSKRLPENAVLKAVQQY
notes: Proline-substituted negative control; also called AKAP18delta-P; No. X

binding result [11]: no binding
binding result [12]: no binding
B2: AKAP18δ-PP (peptide)
peptide: PEDAELVRLSKRLPENAPLKAVQQY
notes: Double proline-substituted negative control; also called AKAP18delta-PP

binding result [13]: binds
binding result [14]: binds
Molecule: EPEDAELVRLSKRLVENAVLKAVQQYLEETQ (also called Akap18delta-RI; No. AA) [AKAP18δ-RI]

binding result [15]: no binding
binding result [16]: binds
B3: A18δRIIαRn3 (10/12) (peptide)
peptide: ANDARLVRLPKRLVENAVLKAVQQY
notes: Member of the substitution library of peptide 7 (row 10, peptide 12); also called peptide 10/12; No. FF

binding result [15]: binds
binding result [16]: no binding
B4: A18δRIIβRn1 (21/4) (peptide)
peptide: ANDARLVRLSKRLVENAVLKFVQQY
notes: Member of the substitution library of peptide 7 (row 21, peptide 4); also called peptide 21/4; A18δRIIβRnl
